Results from PubChem BioAssay (NCI).
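1) Cells in 96-well plates. 2) Compound, 48 h, 5 concentrations. 3) Linear interpolation between surrounding doses. 4) Unreached endpoint = highest concentration. Here, GI50 denotes the concentration required for 50% inhibition of growth. Definition used: TGI = concentration required for complete inhibition of growth.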

Assays:
Assay in all cases: NCI-60 cell line screen, 48 h
786-0 renal = tested on: 786-0 renal
A549 NSCLC = tested on: A549 NSCLC
ACHN renal = tested on: ACHN renal
BT-549 breast = tested on: BT-549 breast
CAKI-1 renal = tested on: CAKI-1 renal
CCRF-CEM leukemia = tested on: CCRF-CEM leukemia
COLO 205 colon = tested on: COLO 205 colon
DU-145 prostate = tested on: DU-145 prostate
EKVX NSCLC = tested on: EKVX NSCLC
HCC-2998 colon = tested on: HCC-2998 colon
HCT-116 colon = tested on: HCT-116 colon
HCT-15 colon = tested on: HCT-15 colon
HOP-62 NSCLC = tested on: HOP-62 NSCLC
HOP-92 NSCLC = tested on: HOP-92 NSCLC
HS 578T breast = tested on: HS 578T breast
HT29 colon = tested on: HT29 colon
IGROV1 ovarian = tested on: IGROV1 ovarian
K-562 leukemia = tested on: K-562 leukemia
KM12 colon = tested on: KM12 colon
LOX IMVI melanoma = tested on: LOX IMVI melanoma
M14 melanoma = tested on: M14 melanoma
MCF7 breast = tested on: MCF7 breast
MDA-MB-231 breast = tested on: MDA-MB-231 breast
MDA-MB-435 = tested on: MDA-MB-435
MOLT-4 leukemia = tested on: MOLT-4 leukemia
NCI-H23 lung = tested on: NCI-H23 lung
NCI-H460 lung = tested on: NCI-H460 lung
NCI-H522 lung = tested on: NCI-H522 lung
NCI/ADR-RES ovarian = tested on: NCI/ADR-RES ovarian
OVCAR-3 ovarian = tested on: OVCAR-3 ovarian
OVCAR-4 ovarian = tested on: OVCAR-4 ovarian
OVCAR-5 ovarian = tested on: OVCAR-5 ovarian
OVCAR-8 ovarian = tested on: OVCAR-8 ovarian
PC-3 prostate = tested on: PC-3 prostate
RPMI-8226 leukemia = tested on: RPMI-8226 leukemia
RXF 393 renal = tested on: RXF 393 renal
SF-268 CNS = tested on: SF-268 CNS
SF-295 CNS = tested on: SF-295 CNS
SF-539 CNS = tested on: SF-539 CNS
SK-MEL-2 melanoma = tested on: SK-MEL-2 melanoma
SK-MEL-28 melanoma = tested on: SK-MEL-28 melanoma
SK-MEL-5 melanoma = tested on: SK-MEL-5 melanoma
SK-OV-3 ovarian = tested on: SK-OV-3 ovarian
SN12C renal = tested on: SN12C renal
SNB-19 CNS = tested on: SNB-19 CNS
SNB-75 CNS = tested on: SNB-75 CNS
SW-620 colon = tested on: SW-620 colon
T-47D breast = tested on: T-47D breast
TK-10 renal = tested on: TK-10 renal
U251 CNS = tested on: U251 CNS
UACC-257 melanoma = tested on: UACC-257 melanoma
UACC-62 melanoma = tested on: UACC-62 melanoma
UO-31 renal = tested on: UO-31 renal

Work on `NS(=O)(=O)c1ccc(N2N=C3c4ccccc4CC3C2c2cccs2)cc1` (stereo unspecified) yielded a GI50 (786-0 renal) of 17.6 µM, a TGI (786-0 renal) of 41.7 µM and a GI50 (A549 NSCLC) of 13.1 µM. It also gave a TGI (A549 NSCLC) of 32.1 µM, a GI50 (ACHN renal) of 19.8 µM and a TGI (ACHN renal) of 36.3 µM. It also gave a GI50 (BT-549 breast) of 19.3 µM, a TGI (BT-549 breast) of 51.7 µM and a GI50 (CAKI-1 renal) of 19.6 µM. The TGI (CAKI-1 renal) was 38.2 µM, the GI50 (CCRF-CEM leukemia) was 31.8 µM and the TGI (CCRF-CEM leukemia) was > 100 µM. The GI50 (COLO 205 colon) was 58.9 µM, the TGI (COLO 205 colon) was > 100 µM and the GI50 (DU-145 prostate) was 14.5 µM. It also gave a TGI (DU-145 prostate) of 37.7 µM, a GI50 (EKVX NSCLC) of 15.9 µM and a TGI (EKVX NSCLC) of 52.5 µM. For the same compound, the GI50 (HCC-2998 colon) was 14.8 µM, the TGI (HCC-2998 colon) was 39.6 µM and the GI50 (HCT-116 colon) was 10.7 µM. The TGI (HCT-116 colon) was 25 µM, the GI50 (HCT-15 colon) was 34.7 µM and the TGI (HCT-15 colon) was > 100 µM. It also gave a GI50 (HOP-62 NSCLC) of 16.9 µM, a TGI (HOP-62 NSCLC) of 36.8 µM and a GI50 (HOP-92 NSCLC) of 25.8 µM. The TGI (HOP-92 NSCLC) was 55.8 µM, the GI50 (HS 578T breast) was 28.7 µM and the TGI (HS 578T breast) was 76.9 µM. The GI50 (HT29 colon) was 26.1 µM, the TGI (HT29 colon) was > 100 µM and the GI50 (IGROV1 ovarian) was 30 µM. The TGI (IGROV1 ovarian) was 89.9 µM, the GI50 (K-562 leukemia) was 5.75 µM and the TGI (K-562 leukemia) was 81.9 µM. For the same compound, the GI50 (KM12 colon) was 15.7 µM, the TGI (KM12 colon) was 57.2 µM and the GI50 (LOX IMVI melanoma) was 19.1 µM. The TGI (LOX IMVI melanoma) was 42.6 µM, the GI50 (M14 melanoma) was 26 µM and the TGI (M14 melanoma) was > 100 µM. The GI50 (MCF7 breast) was > 100 µM, the TGI (MCF7 breast) was > 100 µM and the GI50 (MDA-MB-231 breast) was 16.8 µM. For the same compound, the TGI (MDA-MB-231 breast) was 40.8 µM, the GI50 (MDA-MB-435) was 19.3 µM and the TGI (MDA-MB-435) was 48.1 µM. The GI50 (MOLT-4 leukemia) was 18.9 µM, the TGI (MOLT-4 leukemia) was > 100 µM and the GI50 (NCI-H23 lung) was 20.3 µM. The TGI (NCI-H23 lung) was 48.7 µM, the GI50 (NCI-H460 lung) was > 100 µM and the TGI (NCI-H460 lung) was > 100 µM. For the same compound, the GI50 (NCI-H522 lung) was 39.3 µM, the TGI (NCI-H522 lung) was > 100 µM and the GI50 (NCI/ADR-RES ovarian) was 17.1 µM. It also gave a TGI (NCI/ADR-RES ovarian) of 43.4 µM, a GI50 (OVCAR-3 ovarian) of 24.8 µM and a TGI (OVCAR-3 ovarian) of 47.8 µM. The GI50 (OVCAR-4 ovarian) was > 100 µM, the TGI (OVCAR-4 ovarian) was > 100 µM and the GI50 (OVCAR-5 ovarian) was 26.6 µM. The TGI (OVCAR-5 ovarian) was > 100 µM, the GI50 (OVCAR-8 ovarian) was 15.3 µM and the TGI (OVCAR-8 ovarian) was 40.1 µM. The GI50 (PC-3 prostate) was 22.1 µM, the TGI (PC-3 prostate) was 59.5 µM and the GI50 (RPMI-8226 leukemia) was 32.3 µM. For the same compound, the TGI (RPMI-8226 leukemia) was > 100 µM, the GI50 (RXF 393 renal) was 20.6 µM and the TGI (RXF 393 renal) was 62.6 µM. For the same compound, the GI50 (SF-268 CNS) was > 100 µM, the TGI (SF-268 CNS) was > 100 µM and the GI50 (SF-295 CNS) was 16.2 µM. For the same compound, the TGI (SF-295 CNS) was 34.4 µM, the GI50 (SF-539 CNS) was 17.4 µM and the TGI (SF-539 CNS) was 48.1 µM. For the same compound, the GI50 (SK-MEL-2 melanoma) was > 100 µM, the TGI (SK-MEL-2 melanoma) was > 100 µM and the GI50 (SK-MEL-28 melanoma) was 75.6 µM. The TGI (SK-MEL-28 melanoma) was > 100 µM, the GI50 (SK-MEL-5 melanoma) was 18 µM and the TGI (SK-MEL-5 melanoma) was 43.5 µM. For the same compound, the GI50 (SK-OV-3 ovarian) was 48 µM, the TGI (SK-OV-3 ovarian) was > 100 µM and the GI50 (SN12C renal) was 23.5 µM. The TGI (SN12C renal) was 48.9 µM, the GI50 (SNB-19 CNS) was 34.4 µM and the TGI (SNB-19 CNS) was > 100 µM. For the same compound, the GI50 (SNB-75 CNS) was 31.1 µM, the TGI (SNB-75 CNS) was > 100 µM and the GI50 (SW-620 colon) was 35.4 µM. The TGI (SW-620 colon) was > 100 µM, the GI50 (T-47D breast) was 66.9 µM and the TGI (T-47D breast) was > 100 µM. The GI50 (TK-10 renal) was 13.2 µM, the TGI (TK-10 renal) was 34.1 µM and the GI50 (U251 CNS) was 19.4 µM. The TGI (U251 CNS) was 39.6 µM, the GI50 (UACC-257 melanoma) was 29.7 µM and the TGI (UACC-257 melanoma) was 73.7 µM. It also gave a GI50 (UACC-62 melanoma) of 21.8 µM, a TGI (UACC-62 melanoma) of 44.3 µM and a GI50 (UO-31 renal) of 39.4 µM. For the same compound, the TGI (UO-31 renal) was > 100 µM.
